Test results taken from patent US20110244503A1, “System and Method for Anti-Cancer Drug Candidate Evaluation” (priority 2010, published 2011).

What was measured:
[1] = system: ovarian cancer cell line, CAOV-3; test: MiCK-type spectrophotometric apoptosis assay, CAOV-3 cells; type: cell-based; details: as Example 1 but with higher drug concentrations, above 3 kinetic units = positive response
Procedure: Cancer cells were obtained from exponentially growing cultures in RPMI 1640 medium without phenol red supplemented with 10% heat-inactivated fetal bovine serum, 100 U/ml penicillin and 100 μg/mL streptomycin (complete medium) in humidified air with 5% CO2 at 37° C. Cells were harvested, washed with pre-warmed medium and resuspended in complete medium. Appropriate cell counts and viability were tested.
Cells from each cell line in complete medium were placed in wells of a 96-well plate at a concentration of 2 to 5×10^5 cells/ml. Various dilutions of the drug candidate, Idarubicin, were added to the wells in 5 μL aliquots. Final concentrations for the drug candidate were 0.01, 0.1, 0.5, 1, 5, 10 and 20 μM. The plates were incubated at 37° C. for 30 minutes in a humidified 5% CO2 atmosphere. After this adjustment period, 30 μl of sterile mineral oil was layered on top of each well. The microtiter plate was placed in an incubated spectrophotometer chamber (37° C.) and OD at 600 nm was measured every 5 minutes for a period of 48 hours. The reader was calibrated to zero absorbance using well containing only complete medium and no cells. All tests were performed in triplicate.
Data acquisition and computation was performed using appropriate software. OD readings were plotted against time to provide a kinetic representation of cell responses to the drugs and drug candidate. Kinetic units were calculated for each test well. A kinetic unit below […] was considered a negative response and above 3 was considered a positive response. A kinetic unit between 1.5 and 3 was considered a marginal response.
A variety of anti-cancer drugs were tested against a single ovarian cancer cell line, CAOV-3, to determine their suitability for use against ovarian cancer. Tests were performed in a manner similar to those in Example 1, but with higher drug concentrations.

[2] = system: HL60, an acute promyelocytic leukemia cell line; test: MiCK-type spectrophotometric apoptosis assay, HL60 cells; type: cell-based, human; details: HL-60 cells
Procedure: (§1) Spectrophotometric data may be converted to kinetic units. Kinetic units are determined by the slope of the curve created when the change in the OD at 600 nm caused by cell blebbing is plotted as a function of time. Specific information regarding the calculation of kinetic units is provided in Kravtsov, Vladimir D. et al., Use of the Microculture Kinetic Assay of Apoptosis to Determine Chemosensitivities of Leukemias, Blood 92:968-980 (1998), incorporated by reference herein. Optical density for a given drug candidate at a given concentration may be plotted against time. This plot gives a distinctive increasing curve if the cells are undergoing apoptosis. […] (FIG. 3.) Cell death due to reasons other than apoptosis can also be determined by the current assay and is useful in eliminating false positives from drug candidate screening. […]
(§2) Vmax is the maximum kinetic rate, which is the slope of the steep increase in the OD v. time plot when cells are undergoing apoptosis. […] ODcell is the initial OD of the control containing cells and ODblank is the initial OD of a blank well containing only medium or medium and drug (the drug may be omitted for some drugs, but for colored drugs in particular it may be included in the blank). y is a coefficient dependent on the cell type being assayed and may be determined experimentally through observation of the cell lines. […]

[3] = system: MOLT-3, an acute T-cell lymphoblastic leukemia; test: MiCK-type spectrophotometric apoptosis assay, MOLT-3 cells; type: cell-based, human; details: 0.01-20 μM
Procedure: as §1, §2

[4] = system: RAMOS, a B cell line derived from Burkitt's lymphoma; test: MiCK-type spectrophotometric apoptosis assay, RAMOS cells; type: cell-based, human; details: 0.01-20 μM
Procedure: as §1, §2

[5] = system: JURL-MK2, a chronic myeloid leukemia in blast crisis; test: MiCK-type spectrophotometric apoptosis assay, JURL-MK2 cells; type: cell-based, human; details: 0.01-20 μM, OD at 600 nm every 5 minutes for 48 hours, above 3 = positive response
Procedure: as §1, §2

Structure (SMILES) | response / suitability (in words) [1] | also measured
COc1cccc2c1C(=O)c1c(O)c3c(c(O)c1C2=O)C[C@@](O)(C(C)=O)C[C@@H]3O[C@H]1C[C@H](N)[C@H](O)[C@H](C)O1 [Daunorubicin] | positive response at reasonable concentrations | –
CC(=O)[C@]1(O)Cc2c(O)c3c(c(O)c2[C@@H](O[C@H]2C[C@H](N)[C@H](O)[C@H](C)O2)C1)C(=O)c1ccccc1C3=O [Idarubicin, 4-demethoxydaunorubicin] | positive response at reasonable concentrations | maximal response ([2]; 0.01-20 μM, 48 hours, between 1.5 and 3 = marginal response): 2.3 kinetic units; drug sensitivity (in words) ([2]; threshold 3 kinetic units): only marginal sensitivity; concentration dependence of kinetic unit readings (in words) [3]: higher kinetic unit readings at lower concentrations; apoptotic response ([3]; OD at 600 nm every 5 minutes for 48 hours, above 3 = positive response): exceeding 3 kinetic units; apoptotic response ([4]; RAMOS cells, OD at 600 nm every 5 minutes for 48 hours, above 3 = positive response): exceeding 3 kinetic units; concentration dependence of response (in words) ([4]; Ramos cells): positive response was seen in the Ramos cell line only at high concentrations; apoptotic response [5]: exceeding 3 kinetic units
CCc1c2c(nc3ccc(OC(=O)N4CCC(N5CCCCC5)CC4)cc13)-c1cc3c(c(=O)n1C2)COC(=O)[C@]3(O)CC [Irinotecan] | need to use high concentrations of the drug to achieve a positive response | –
CO[C@@]12[C@H](COC(N)=O)C3=C(C(=O)C(C)=C(N)C3=O)N1C[C@@H]1N[C@@H]12 [Mitomycin] | positive response at reasonable concentrations | –
O=C1c2c(O)ccc(O)c2C(=O)c2c(NCCNCCO)ccc(NCCNCCO)c21 [Mitoxantrone] | positive response at reasonable concentrations | –
O=C1[O][Pt]2([NH][C@@H]3CCCC[C@H]3[NH]2)[O]C1=O [Oxaliplatin] | not suitable drugs for treating ovarian cancer | –
CCC1=C[C@@H]2CN(C1)Cc1c([nH]c3ccccc13)[C@@](C(=O)OC)(c1cc3c(cc1OC)N(C)[C@H]1[C@@](O)(C(=O)OC)[C@H](OC(C)=O)[C@]4(CC)C=CCN5CC[C@]31[C@@H]54)C2 [Vinorelbine] | not suitable drugs for treating ovarian cancer | –
